Here are results for five compounds from PubChem BioAssay AID1963979 (Molecular Pharmacology Branch, DTP, NCI, 2024).

For the assay, the system named is 361931-004-R-J1-PDC multicell spheroid viability. Description: Anticancer human tumor 361931-004-R-J1-PDC patient-derived colon adenocarcinoma cell line growth inhibition [PI3K]. The conditions noted are these: for viability, T/C: stronger effect = lower value. The gist of the method: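 Spheroid viability read-out. Co-cultures contained the tumor line plus HUVEC and human MSCs. Each agent was paired with a PI3K inhibitor (inavolisib, alpelisib, duvelisib, copanlisib) across half-log dilutions starting at clinical Cmax, or at 10 microM when Cmax was unknown.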

Where “and” joins values, the source holds several entries; their conditions need not be identical. Equal values may be shown once.
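Note: spheroids exposed to agents for seven days before readout.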

A word on the IC50: it is the concentration needed to halve the response being measured. What is called viability, T/C is the result in the treated group divided by that in the control group, in per cent. Turning to `C=CC(=O)N1CCN(c2nc(=O)n(-c3c(C)ccnc3C(C)C)c3nc(-c4c(O)cccc4F)c(F)cc23)C(C)C1` (stereo not drawn) + COc1c(OCCCN2CCOCC2)ccc2c3n(c(=NC(=O)c4cnc(N)nc4)nc12)CCN3, the IC50 runs as follows: (curve of first compound, second compound 0.00316 µM) > 10 µM; (curve of first compound, second compound 0.01 µM) > 10 µM; (curve of first compound, second compound 0.0316 µM) > 10 µM; (curve of first compound, second compound 0.1 µM) > 10 µM; (curve of first compound, second compound 0.316 µM) 0.0316 µM; (curve of first compound, second compound 1 µM) < 0.0316 µM. Also, the viability, T/C runs as follows: (second compound 0.00316 µM, first compound 0.0316 µM) 97.7%; (second compound 0.00316 µM, first compound 0.1 µM) 100%; (second compound 0.00316 µM, first compound 0.316 µM) 100%; (second compound 0.00316 µM, first compound 1 µM) 98.7%; (second compound 0.00316 µM, first compound 3.16 µM) 99.9%; (second compound 0.00316 µM, first compound 10 µM) 90.1%. Besides, the viability, T/C was 98% (second compound 0.01 µM, first compound 0.0316 µM); 95% (second compound 0.01 µM, first compound 0.1 µM); 92.6% (second compound 0.01 µM, first compound 0.316 µM); 94.4% (second compound 0.01 µM, first compound 1 µM); 103% (second compound 0.01 µM, first compound 3.16 µM); 89% (second compound 0.01 µM, first compound 10 µM). The viability, T/C (second compound 0.0316 µM, first compound 0.0316 µM) was 94.6%; the viability, T/C (second compound 0.0316 µM, first compound 0.1 µM) is 89.5%; the viability, T/C (second compound 0.0316 µM, first compound 0.316 µM) was 90.6%; the viability, T/C (second compound 0.0316 µM, first compound 1 µM) was 94.7%; the viability, T/C (second compound 0.0316 µM, first compound 3.16 µM) is 91.6%; the viability, T/C (second compound 0.0316 µM, first compound 10 µM) was 82.4%. In addition, the viability, T/C reads like this: (second compound 0.1 µM, first compound 0.0316 µM) 83.8%; (second compound 0.1 µM, first compound 0.1 µM) 80.3%; (second compound 0.1 µM, first compound 0.316 µM) 77.8%; (second compound 0.1 µM, first compound 1 µM) 76%; (second compound 0.1 µM, first compound 3.16 µM) 78.8%; (second compound 0.1 µM, first compound 10 µM) 54.9%. The viability, T/C (second compound 0.316 µM, first compound 0.0316 µM) is 48.7%; the viability, T/C (second compound 0.316 µM, first compound 0.1 µM) was 49.8%; the viability, T/C (second compound 0.316 µM, first compound 0.316 µM) is 47.1%; the viability, T/C (second compound 0.316 µM, first compound 1 µM) is 39.5%; the viability, T/C (second compound 0.316 µM, first compound 3.16 µM) was 51.1%; the viability, T/C (second compound 0.316 µM, first compound 10 µM) was 32.8%. Also, the viability, T/C (second compound 1 µM, first compound 0.0316 µM) is 20.4%; the viability, T/C (second compound 1 µM, first compound 0.1 µM) is 22.1%; the viability, T/C (second compound 1 µM, first compound 0.316 µM) is 15.4%; the viability, T/C (second compound 1 µM, first compound 1 µM) was 20.2%; the viability, T/C (second compound 1 µM, first compound 3.16 µM) was 18.3%; the viability, T/C (second compound 1 µM, first compound 10 µM) was 12.4%.
In the case of `Cc1nc(NC(=O)N2CCCC2C(N)=O)sc1-c1ccnc(C(C)(C)C(F)(F)F)c1` (stereo not drawn), the viability, T/C runs as follows: (compound 0.0316 µM) 101% [middle of 8 runs]; (compound 0.316 µM) 97.9% [middle of 8 runs]; (compound 1 µM) 91.2% [middle of 8 runs]; (compound 3.16 µM) 87.2% [middle of 8 runs]; (compound 10 µM) 73.8% [middle of 8 runs]. Besides, under “compound alone, run of 05/08/2023”, the half-inhibitory concentration (IC50) is > 10 µM.
In the case of `CNC(=O)c1ccc(N2C(=S)N(c3ccc(C#N)c(C(F)(F)F)c3)C(=O)C2(C)C)cc1F`, the viability, T/C (compound 0.0316 µM) was 101% [middle of 4 runs]; the viability, T/C (compound 0.1 µM) is 101% [middle of 4 runs]; the viability, T/C (compound 0.316 µM) was 104% [middle of 4 runs]; the viability, T/C (compound 1 µM) was 110% and 103% (2×) and 102%; the viability, T/C (compound 3.16 µM) is 98.6% [middle of 4 runs]; the viability, T/C (compound 10 µM) is 92.4% [middle of 4 runs]. Also, for the setting “curve of compound”, the IC50 was > 10 µM.
Turning to `C#Cc1c(F)ccc2cc(O)cc(-c3ncc4c(N5CC6CCC(C5)N6)nc(OCC56CCCN5CC(F)C6)nc4c3F)c12` (stereo not drawn), the viability, T/C runs as follows: (compound 0.0316 µM) 104% [middle of 4 runs]; (compound 0.1 µM) 106% [middle of 4 runs]; (compound 0.316 µM) 100% [middle of 4 runs]; (compound 1 µM) 104% [middle of 4 runs]; (compound 3.16 µM) 96.7% [middle of 4 runs]. In addition, the IC50 (curve of compound) is > 10 µM.
Turning to `C[C@@H](NC(=O)c1ncnc(N)c1Cl)c1ncc(C(=O)Nc2cc(C(F)(F)F)c(Cl)cn2)s1`, the viability, T/C by setting is: (compound 0.0316 µM) 106% [middle of 4 runs]; (compound 0.1 µM) 103% and 104% (2×) and 115%; (compound 0.316 µM) 107% [middle of 4 runs]; (compound 1 µM) 99.6% [middle of 4 runs]; (compound 3.16 µM) 99.3% [middle of 4 runs]; (compound 10 µM) 100% [middle of 4 runs]. For the same compound, the IC50 (curve of compound) is > 10 µM.
